Measurements: ChEMBL document CHEMBL3045446, “In vitro antimicrobial and antimycobacterial activity of some chalcones and their derivatives” (2013)
≈ marks a conversion by molar mass, not a printed value.

Experiments:
Assay type in all cases: functional
[1] = test system: Pseudomonas aeruginosa; test: Antimicrobial activity against Pseudomonas aeruginosa MTCC 741 assessed as growth inhibition after 24 hr by agar streak dilution method; conditions: MTCC 741, 24 h
[2] = test system: Klebsiella pneumoniae; test: Antimicrobial activity against Klebsiella pneumoniae MTCC 109 assessed as growth inhibition after 24 hr by agar streak dilution method; conditions: MTCC 109, 24 h
[3] = test system: Aspergillus clavatus; test: Antimicrobial activity against Aspergillus clavatus MTCC 1323 assessed as growth inhibition after 48 hr by agar streak dilution method; conditions: MTCC 1323, 48 h
[4] = test system: Staphylococcus aureus; test: Antimicrobial activity against Staphylococcus aureus MTCC 96 assessed as growth inhibition after 24 hr by agar streak dilution method; conditions: MTCC 96, 24 h
[5] = test system: Pseudomonas aeruginosa; test: Antimicrobial activity against Pseudomonas aeruginosa MTCC 741 assessed as diameter of growth inhibition zone after 24 hr
[6] = test system: Salmonella typhi; test: Antimicrobial activity against Salmonella enterica subsp. enterica serovar Typhi MTCC 733 assessed as growth inhibition after 24 hr by agar streak dilution method; conditions: MTCC 733, 24 h
[7] = test system: Candida albicans; test: Antimicrobial activity against Candida albicans MTCC 183 assessed as diameter of growth inhibition zone after 48 hr
[8] = test system: Proteus vulgaris; test: Antimicrobial activity against Proteus vulgaris MTCC 1771 assessed as diameter of growth inhibition zone after 24 hr
[9] = test system: Shigella flexneri; test: Antimicrobial activity against Shigella flexneri MTCC1457 assessed as growth inhibition after 24 hr by agar streak dilution method; conditions: MTCC1457, 24 h
[10] = test system: Salmonella typhi; test: Antimicrobial activity against Salmonella enterica subsp. enterica serovar Typhi MTCC 733 assessed as diameter of growth inhibition zone after 24 hr
[11] = test system: Aspergillus fumigatus; test: Antimicrobial activity against Aspergillus fumigatus MTCC 343 assessed as growth inhibition after 48 hr by agar streak dilution method; conditions: MTCC 343, 48 h
[12] = test system: Escherichia coli; test: Antimicrobial activity against Escherichia coli MTCC 739 assessed as diameter of growth inhibition zone after 24 hr
[13] = test system: Escherichia coli; test: Antimicrobial activity against Escherichia coli MTCC 739 assessed as growth inhibition after 24 hr by agar streak dilution method; conditions: MTCC 739, 24 h
[14] = test system: Candida albicans; test: Antimicrobial activity against Candida albicans MTCC 183 assessed as growth inhibition after 48 hr by agar streak dilution method; conditions: MTCC 183, 48 h
[15] = test system: Shigella flexneri; test: Antimicrobial activity against Shigella flexneri MTCC1457 assessed as diameter of growth inhibition zone after 24 hr
[16] = test system: Aspergillus niger; test: Antimicrobial activity against Aspergillus niger MTCC 282 assessed as diameter of growth inhibition zone after 48 hr
[17] = test system: Proteus vulgaris; test: Antimicrobial activity against Proteus vulgaris MTCC 1771 assessed as growth inhibition after 24 hr by agar streak dilution method; conditions: MTCC 1771, 24 h
[18] = test system: Aspergillus clavatus; test: Antimicrobial activity against Aspergillus clavatus MTCC 1323 assessed as diameter of growth inhibition zone after 48 hr
[19] = test system: Mycobacterium tuberculosis; test: Antituberculosis activity against Mycobacterium tuberculosis H37Rv assessed as growth inhibition after 12 to 28 days by L-J MIC method; conditions: for MIC: Mycobacterium tuberculosis, H37Rv
[20] = test system: Klebsiella pneumoniae; test: Antimicrobial activity against Klebsiella pneumoniae MTCC 109 assessed as diameter of growth inhibition zone after 24 hr
[21] = test system: Staphylococcus aureus; test: Antimicrobial activity against Staphylococcus aureus MTCC 96 assessed as diameter of growth inhibition zone after 24 hr
[22] = test system: Aspergillus fumigatus; test: Antimicrobial activity against Aspergillus fumigatus MTCC 343 assessed as diameter of growth inhibition zone after 48 hr
[23] = test system: Aspergillus niger; test: Antimicrobial activity against Aspergillus niger MTCC 282 assessed as growth inhibition after 48 hr by agar streak dilution method; conditions: MTCC 282, 48 h
[24] = test system: Bacillus cereus; test: Antimicrobial activity against Bacillus cereus MTCC 430 assessed as diameter of growth inhibition zone after 24 hr
[25] = test system: Bacillus cereus; test: Antimicrobial activity against Bacillus cereus MTCC 430 assessed as growth inhibition after 24 hr by agar streak dilution method; conditions: MTCC 430, 24 h

For `COc1ccc(-c2cc(-c3ccc(Nc4cc(=O)oc5ccccc45)cc3)nc(N)c2C#N)cc1OC`, the MIC [1] was 6.25 µg/mL (≈ 12.7 µM), the MIC [2] was 3.12 µg/mL (≈ 6.36 µM) and the MIC [3] was 6.25 µg/mL (≈ 12.7 µM). For the same molecule, the MIC [4] was 3.12 µg/mL (≈ 6.36 µM), the “diameter of the inhibition zone (DIZ)” value [5] was 25 mm and the MIC [6] was 3.12 µg/mL (≈ 6.36 µM). For the same molecule, the “diameter of the inhibition zone (DIZ)” value [7] was 27 mm, the “diameter of the inhibition zone (DIZ)” value [8] was 25 mm and the MIC [9] was 6.25 µg/mL (≈ 12.7 µM). For the same molecule, the “diameter of the inhibition zone (DIZ)” value [10] was 27 mm, the MIC [11] was 3.12 µg/mL (≈ 6.36 µM) and the “diameter of the inhibition zone (DIZ)” value [12] was 26 mm. The MIC [13] was 6.25 µg/mL (≈ 12.7 µM), the MIC [14] was 6.25 µg/mL (≈ 12.7 µM) and the “diameter of the inhibition zone (DIZ)” value [15] was 27 mm. The “diameter of the inhibition zone (DIZ)” value [16] was 27 mm, the MIC [17] was 6.25 µg/mL (≈ 12.7 µM) and the “diameter of the inhibition zone (DIZ)” value [18] was 25 mm. The “growth inhibition (GI)” value [19] was 99%, the MIC [19] was 12.5 µg/mL (≈ 25.5 µM) and the “diameter of the inhibition zone (DIZ)” value [20] was 28 mm. For the same molecule, the “diameter of the inhibition zone (DIZ)” value [21] was 29 mm, the “diameter of the inhibition zone (DIZ)” value [22] was 28 mm and the MIC [23] was 6.25 µg/mL (≈ 12.7 µM). For the same molecule, the “diameter of the inhibition zone (DIZ)” value [24] was 26 mm and the MIC [25] was 6.25 µg/mL (≈ 12.7 µM).
`COc1ccc(/C=C/C(=O)c2ccc(Nc3cc(=O)oc4ccccc34)cc2)cc1OC` was tested, and the MIC [1] was 50 µg/mL (≈ 117 µM), the MIC [2] was 100 µg/mL (≈ 234 µM) and the MIC [3] was 100 µg/mL (≈ 234 µM). The MIC [4] was 25 µg/mL (≈ 58.5 µM), the “diameter of the inhibition zone (DIZ)” value [5] was 18 mm and the MIC [6] was 100 µg/mL (≈ 234 µM). For the same molecule, the “diameter of the inhibition zone (DIZ)” value [7] was 17 mm, the “diameter of the inhibition zone (DIZ)” value [8] was 19 mm and the MIC [9] was 25 µg/mL (≈ 58.5 µM). For the same molecule, the “diameter of the inhibition zone (DIZ)” value [10] was 16 mm, the MIC [11] was 50 µg/mL (≈ 117 µM) and the “diameter of the inhibition zone (DIZ)” value [12] was 22 mm. The MIC [13] was 25 µg/mL (≈ 58.5 µM), the MIC [14] was 100 µg/mL (≈ 234 µM) and the “diameter of the inhibition zone (DIZ)” value [15] was 20 mm. The “diameter of the inhibition zone (DIZ)” value [16] was 21 mm, the MIC [17] was 50 µg/mL (≈ 117 µM) and the “diameter of the inhibition zone (DIZ)” value [18] was 16 mm. For the same molecule, the “growth inhibition (GI)” value [19] was 97%, the MIC [19] was 200 µg/mL (≈ 468 µM) and the “diameter of the inhibition zone (DIZ)” value [20] was 17 mm. The “diameter of the inhibition zone (DIZ)” value [21] was 21 mm, the “diameter of the inhibition zone (DIZ)” value [22] was 17 mm and the MIC [23] was 25 µg/mL (≈ 58.5 µM). The “diameter of the inhibition zone (DIZ)” value [24] was 19 mm and the MIC [25] was 50 µg/mL (≈ 117 µM).
Molecule `COc1ccc(-c2cc(-c3ccc(Nc4cc(=O)oc5ccccc45)cc3)nc(N)n2)cc1` has an MIC [1] of 12.5 µg/mL (≈ 28.6 µM), an MIC [2] of 25 µg/mL (≈ 57.3 µM) and an MIC [3] of 12.5 µg/mL (≈ 28.6 µM). For the same molecule, the MIC [4] was 12.5 µg/mL (≈ 28.6 µM), the “diameter of the inhibition zone (DIZ)” value [5] was 21 mm and the MIC [6] was 50 µg/mL (≈ 115 µM). For the same molecule, the “diameter of the inhibition zone (DIZ)” value [7] was 24 mm, the “diameter of the inhibition zone (DIZ)” value [8] was 24 mm and the MIC [9] was 50 µg/mL (≈ 115 µM). For the same molecule, the “diameter of the inhibition zone (DIZ)” value [10] was 19 mm, the MIC [11] was 25 µg/mL (≈ 57.3 µM) and the “diameter of the inhibition zone (DIZ)” value [12] was 22 mm. The MIC [13] was 25 µg/mL (≈ 57.3 µM), the MIC [14] was 25 µg/mL (≈ 57.3 µM) and the “diameter of the inhibition zone (DIZ)” value [15] was 19 mm. For the same molecule, the “diameter of the inhibition zone (DIZ)” value [16] was 23 mm, the MIC [17] was 12.5 µg/mL (≈ 28.6 µM) and the “diameter of the inhibition zone (DIZ)” value [18] was 23 mm. For the same molecule, the “growth inhibition (GI)” value [19] was 98%, the MIC [19] was 62.5 µg/mL (≈ 143 µM) and the “diameter of the inhibition zone (DIZ)” value [20] was 20 mm. The “diameter of the inhibition zone (DIZ)” value [21] was 22 mm, the “diameter of the inhibition zone (DIZ)” value [22] was 20 mm and the MIC [23] was 12.5 µg/mL (≈ 28.6 µM). For the same molecule, the “diameter of the inhibition zone (DIZ)” value [24] was 21 mm and the MIC [25] was 12.5 µg/mL (≈ 28.6 µM).
`O=C(/C=C/c1ccc(Cl)cc1Cl)c1ccc(Nc2cc(=O)oc3ccccc23)cc1` gave an MIC [1] of 100 µg/mL (≈ 229 µM), an MIC [2] of 100 µg/mL (≈ 229 µM) and an MIC [3] of 100 µg/mL (≈ 229 µM). The MIC [4] was 25 µg/mL (≈ 57.3 µM), the “diameter of the inhibition zone (DIZ)” value [5] was <10 mm and the MIC [6] was 50 µg/mL (≈ 115 µM). The “diameter of the inhibition zone (DIZ)” value [7] was 12 mm, the “diameter of the inhibition zone (DIZ)” value [8] was 19 mm and the MIC [9] was 100 µg/mL (≈ 229 µM). The “diameter of the inhibition zone (DIZ)” value [10] was 17 mm, the MIC [11] was 50 µg/mL (≈ 115 µM) and the “diameter of the inhibition zone (DIZ)” value [12] was 14 mm. The MIC [13] was 100 µg/mL (≈ 229 µM), the MIC [14] was 100 µg/mL (≈ 229 µM) and the “diameter of the inhibition zone (DIZ)” value [15] was 13 mm. For the same molecule, the “diameter of the inhibition zone (DIZ)” value [16] was 15 mm, the MIC [17] was 50 µg/mL (≈ 115 µM) and the “diameter of the inhibition zone (DIZ)” value [18] was 14 mm. The “growth inhibition (GI)” value [19] was 95%, the MIC [19] was 1000 µg/mL (≈ 2290 µM) and the “diameter of the inhibition zone (DIZ)” value [20] was 16 mm. For the same molecule, the “diameter of the inhibition zone (DIZ)” value [21] was 20 mm, the “diameter of the inhibition zone (DIZ)” value [22] was 17 mm and the MIC [23] was 100 µg/mL (≈ 229 µM). For the same molecule, the “diameter of the inhibition zone (DIZ)” value [24] was 16 mm and the MIC [25] was 50 µg/mL (≈ 115 µM).
Work on `O=C(/C=C/c1ccccc1Br)c1ccc(Nc2cc(=O)oc3ccccc23)cc1` yielded an MIC [1] of 100 µg/mL (≈ 224 µM), an MIC [2] of 100 µg/mL (≈ 224 µM) and an MIC [3] of 100 µg/mL (≈ 224 µM). The MIC [4] was 100 µg/mL (≈ 224 µM), the “diameter of the inhibition zone (DIZ)” value [5] was <10 mm and the MIC [6] was 100 µg/mL (≈ 224 µM). The “diameter of the inhibition zone (DIZ)” value [7] was 18 mm, the “diameter of the inhibition zone (DIZ)” value [8] was <10 mm and the MIC [9] was 100 µg/mL (≈ 224 µM). The “diameter of the inhibition zone (DIZ)” value [10] was 11 mm, the MIC [11] was 100 µg/mL (≈ 224 µM) and the “diameter of the inhibition zone (DIZ)” value [12] was 11 mm. For the same molecule, the MIC [13] was 100 µg/mL (≈ 224 µM), the MIC [14] was 50 µg/mL (≈ 112 µM) and the “diameter of the inhibition zone (DIZ)” value [15] was 12 mm. The “diameter of the inhibition zone (DIZ)” value [16] was 12 mm, the MIC [17] was 100 µg/mL (≈ 224 µM) and the “diameter of the inhibition zone (DIZ)” value [18] was 12 mm. For the same molecule, the “growth inhibition (GI)” value [19] was 97%, the MIC [19] was 500 µg/mL (≈ 1120 µM) and the “diameter of the inhibition zone (DIZ)” value [20] was 14 mm. For the same molecule, the “diameter of the inhibition zone (DIZ)” value [21] was 13 mm, the “diameter of the inhibition zone (DIZ)” value [22] was 15 mm and the MIC [23] was 100 µg/mL (≈ 224 µM). The “diameter of the inhibition zone (DIZ)” value [24] was 11 mm and the MIC [25] was 100 µg/mL (≈ 224 µM).
